The values below come from patent US20240199625A1, “BICYCLIC HETEROCYCLIC FGFR4 INHIBITOR, PHARMACEUTICAL COMPOSITION AND PREPARATION COMPRISING SAME, AND APPLICATION THEREOF” (Hangzhou Apeloa Medicine Research Institute Co., Ltd., priority 2021, published 2024).

Read-outs that look alike come from different tables or passages of the source.

For experiment [1], the target named is tyrosine kinase FGFR4 (Homo sapiens (Human), UniProt P22455). Kind of experiment: In vitro kinase test (HTRF), FGFR4. The class given is biochemical. The settings on record: for IC50: HTRF, 60 min preincubation, 40 min reaction at 37° C.; for FGFR1 IC50 / FGFR4 IC50 ratio (FGFR4 selectivity): ratio of the FGFR1 and FGFR4 IC50 values. As for the experimental part:
(§1) The effect of compounds of the present invention on tyrosine kinase FGFR1 and FGFR4 activity is evaluated by an in vitro kinase test. The method used in the test was homogeneous time-resolved fluorescence (HTRF).
(§2) Compound preparation: Add 45 μL of DMSO to 5 μL of stock solution at a concentration of 10 mM to prepare the solution LY2874455 at 1000 µM; then add 12 μL of the compound at 1000 μM to 88 µL of DMSO to prepare the solution LY2874455 at 120 μM as the starting concentration; add 48 μL of DMSO to 2 μL of stock solution at a concentration of 10 mM to prepare the solution BLU554 at 400 μM as the starting concentration; add 15 μL of DMSO to 10 μL of sample compound stock solution at a concentration of 10 mM to prepare a sample compound solution at 4 mM as the starting concentration; transfer the compound solution to the target plate with the dispenser Echo.
(§3) Kinase reaction: Add 5 μL of kinase solution to each well, incubate the compound and kinase at room temperature for 60 min, add 5 μL of substrate and ATP mixture to start reacting at 37° C. for a certain period of time (30 min for FGFR1 kinase test, and 40 min for FGFR4 kinase test), and then add 10 μL of X1665 and antibody detection reagent mixture to stop; after 60 min of incubation at room temperature, read the TR-FRET signal with microplate reader SPARK 10M at the transmit wavelength of 665 nm/612 nM. Test enzyme activity at 10 concentrations for each compound, and calculate the IC50 value of the compound with the data with the analysis software, as shown in Table 1.
Background: In TR-FRET formats the signal depends on donor and acceptor labels being close together.

Experiment [2] deals with human hepatoma cells Hep3B. Kind of experiment: Cell proliferation test (CELL TITER-GLO). As to conditions: 3 days incubation, CTG, read-out: IC50 Value of Compound for Hep3B Cells. The class given is cell-based. As for the experimental part: The effect of the compounds of the present invention on the proliferation of human hepatoma cells Hep3B is evaluated by an in vitro cell test. The method used in the test was CELL TITER-GLO (CTG).
Cell plating: Take Hep3B cells in the logarithmic growth phase, digest, centrifuge at 1,000 rpm for 5 min at room temperature and collect, resuspend with EMEM medium of 10% FBS and count, and inoculate into a 384-well microplate (#3765) at a density of 800 cells/well, 20 μL in each.
Compound preparation: Dissolve the compound in DMSO to prepare a stock solution at a concentration of 10 mM, dilute the sample compound stock solution to 2 mM with DMSO (6 μL of the stock solution plus 24 μL of DMSO) as the starting concentration, and dilute the control compound stock solution to 200 μM with DMSO (2 μL of the stock solution plus 98 μL of DMSO) as the starting concentration; dilute the compound 9 times with DMSO in gradient by 3 folds, and then dilute the compound to 40 times the final concentration dose with cell culture medium (2 μL of the compound plus 78 μL of […]).
Cell dosing: Add 5 μL (5×) of the compound to the corresponding wells, make sure the final concentrations of sample compounds are respectively 10000 nM, 3333 nM, 1111 nM, 370.37 nM, 123.46 nM, 41.15 nM, 13.72 nM, 4.57 nM, 1.52 nM, 0.50 nM, take 0.5% DMSO as the negative control, and incubate the microplate at 37° C. in 5% C02 for 3 days.
CTG detection: After 3 days of incubation, add 5 μL of Cell Titer-Glo® reagent per well, incubate on a shaker at 300 rpm for 60 min protected from light at room temperature, read the luminescence signals with microplate reader Spark 10M, and calculate the semi-inhibitory concentration of the compound on cell proliferation, that is, the IC50 value, with the analysis software, as shown in Table 2.
(In general: In ATP-based viability assays light output follows the ATP content of the culture.)

The target in experiment [3] is tyrosine kinase FGFR1 (Homo sapiens (Human), UniProt P11362). Kind of experiment: In vitro kinase test (HTRF), FGFR1. The class given is biochemical. The settings on record: 60 min preincubation, 30 min reaction at 37° C. The method, then: as §1, §2, §3

Usually IC50 stands for the concentration at which inhibition is half-maximal.

tyrosine kinase FGFR1, sequence (P11362 22-822): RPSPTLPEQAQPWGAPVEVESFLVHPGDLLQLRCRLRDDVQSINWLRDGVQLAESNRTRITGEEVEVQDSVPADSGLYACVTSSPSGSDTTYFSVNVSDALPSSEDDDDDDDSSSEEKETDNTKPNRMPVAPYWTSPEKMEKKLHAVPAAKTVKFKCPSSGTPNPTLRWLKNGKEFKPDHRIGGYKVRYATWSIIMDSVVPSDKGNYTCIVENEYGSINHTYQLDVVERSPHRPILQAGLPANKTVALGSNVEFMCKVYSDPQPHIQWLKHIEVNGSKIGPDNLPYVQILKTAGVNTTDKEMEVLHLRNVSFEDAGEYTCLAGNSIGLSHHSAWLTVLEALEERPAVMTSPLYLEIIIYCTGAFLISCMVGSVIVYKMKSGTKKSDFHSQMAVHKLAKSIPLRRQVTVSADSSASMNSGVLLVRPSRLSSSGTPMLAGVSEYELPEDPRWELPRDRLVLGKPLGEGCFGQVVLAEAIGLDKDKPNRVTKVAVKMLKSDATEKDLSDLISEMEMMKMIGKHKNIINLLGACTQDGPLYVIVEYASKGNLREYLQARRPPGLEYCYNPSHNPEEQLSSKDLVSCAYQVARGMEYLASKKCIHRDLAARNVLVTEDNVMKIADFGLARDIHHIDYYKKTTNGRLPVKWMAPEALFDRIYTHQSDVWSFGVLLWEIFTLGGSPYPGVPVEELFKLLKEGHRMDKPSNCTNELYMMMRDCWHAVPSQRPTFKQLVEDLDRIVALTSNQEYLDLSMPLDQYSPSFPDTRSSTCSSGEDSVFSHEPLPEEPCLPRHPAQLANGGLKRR
tyrosine kinase FGFR4, sequence (P22455 22-802): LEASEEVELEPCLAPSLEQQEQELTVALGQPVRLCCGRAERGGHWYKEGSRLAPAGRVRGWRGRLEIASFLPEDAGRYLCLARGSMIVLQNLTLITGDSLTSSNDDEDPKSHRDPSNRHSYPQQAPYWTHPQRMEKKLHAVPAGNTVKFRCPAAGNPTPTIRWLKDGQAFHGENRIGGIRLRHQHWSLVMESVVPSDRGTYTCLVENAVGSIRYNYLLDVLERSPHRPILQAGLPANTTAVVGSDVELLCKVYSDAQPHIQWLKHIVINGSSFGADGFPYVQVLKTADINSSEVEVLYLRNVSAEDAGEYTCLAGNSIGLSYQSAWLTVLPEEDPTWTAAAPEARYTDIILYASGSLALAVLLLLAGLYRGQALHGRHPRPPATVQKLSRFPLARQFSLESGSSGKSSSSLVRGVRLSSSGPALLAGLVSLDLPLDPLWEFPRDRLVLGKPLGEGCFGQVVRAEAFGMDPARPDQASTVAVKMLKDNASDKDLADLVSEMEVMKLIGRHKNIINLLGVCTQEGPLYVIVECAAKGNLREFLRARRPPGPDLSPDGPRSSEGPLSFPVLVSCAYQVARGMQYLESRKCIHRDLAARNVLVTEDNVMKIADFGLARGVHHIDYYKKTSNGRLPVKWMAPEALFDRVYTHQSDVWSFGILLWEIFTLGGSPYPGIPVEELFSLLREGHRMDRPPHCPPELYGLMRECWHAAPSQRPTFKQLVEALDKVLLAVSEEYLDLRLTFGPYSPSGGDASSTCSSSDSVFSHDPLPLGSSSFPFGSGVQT

Take `C=CC(=O)Nc1cc(N2CCOCC2)c(F)cc1Nc1cc2c(cn1)CN(c1c(F)c(OC)nc(OC)c1F)C(=O)C21CC1` [Compound 14, N-(2-((2′-(3,5-difluoro-2,6-dimethoxypyridine-4-yl)-3′-oxo-2′,3′-dihydro-1′H-spiro[cyclopropane-1,4′-[2,7]naphthyridine]-6′-yl)-amino)-4-fluoro-5-morpholinophenyl)acrylamide]: the concentration for half-maximal inhibition (IC50) is 2.6 nM in experiment [1]; 38.1 nM in experiment [2] (Homo sapiens, Hep3B, 72 h); over 9930 nM in experiment [3]. In addition, in experiment [1], the “FGFR1 IC50 / FGFR4 IC50 ratio (FGFR4 selectivity)” value is 3817.

As to `C=CC(=O)Nc1cc(N2CCC(N3CCOCC3)CC2)ccc1Nc1cc2c(cn1)CN(c1c(F)c(OC)nc(OC)c1F)C(=O)C21CC1` [Compound 5, N-(2-((2′-(3,5-difluoro-2,6-dimethoxypyridine-4-yl)-3′-oxo-2′,3′-dihydro-1′H-spiro[cyclopropane-1,4′-[2,7]naphthyridine]-6′-yl)-amino)-5-(4-morpholinopiperidin-1-yl)phenyl)acrylamide], in experiment [1], the half-inhibitory concentration (IC50) was determined as 0.3 nM and the “FGFR1 IC50 / FGFR4 IC50 ratio (FGFR4 selectivity)” value turned out to be 20. The molecule also gave a concentration for half-maximal inhibition (IC50) in experiment [3] of 6 nM.

Regarding `C=CC(=O)NCc1cc2c(cn1)CN(c1c(F)c(OC)nc(OC)c1F)C(=O)C21CC1` [Compound 1, N-((2′-(3,5-difluoro-2,6-dimethoxypyridine-4-yl)-3′-oxo-2′,3′-dihydro-1′H-spiro[cyclopropane-1,4′-[2,7]naphthine]-6′-yl)methyl) acrylamide], the half-maximal inhibitory concentration (IC50) in experiment [1] came to 8.57 nM; in experiment [2], 52.6 nM; in experiment [3] it was 3660 nM. Also, the “FGFR1 IC50 / FGFR4 IC50 ratio (FGFR4 selectivity)” value in experiment [1] came to 426.

As to `C=CC(=O)N[C@H]1CCOC[C@H]1Nc1ncc2cc(-c3c(Cl)c(OC)cc(OC)c3Cl)ccc2n1` [BLU554, reference compound], the half-maximal inhibitory concentration (IC50) in experiment [1] was determined as 5.98 nM; in experiment [2] (Homo sapiens, Hep3B, 72 h), 38.4 nM; in experiment [3], 624 nM.

Turning to `C=CC(=O)Nc1cc(N2CCOCC2C)ccc1Nc1cc2c(cn1)CN(c1c(F)c(OC)nc(OC)c1F)C(=O)C21CC1` (centres unmarked) [Compound 15, N-(2-((2′-(3,5-difluoro-2,6-dimethoxypyridine-4-yl)-3′-oxo-2′,3′-dihydro-1′H-spiro[cyclopropane-1,4′-[2,7]naphthyridine]-6′-yl)-amino)-5-(3-methomorpholinyl)phenyl)acrylamide], the half-maximal inhibitory concentration (IC50) in experiment [1] is 0.63 nM; in experiment [2] it was 15.3 nM; in experiment [3], 2280 nM. Further, the “FGFR1 IC50 / FGFR4 IC50 ratio (FGFR4 selectivity)” value in experiment [1] is 3617.

As to `C=CC(=O)Nc1cccc(C)c1Nc1cc2c(cn1)CN(c1c(F)c(OC)nc(OC)c1F)C(=O)C21CC1` [Compound 8, N-(2-((2′-(3,5-difluoro-2,6-dimethoxypyridine-4-yl)-3′-oxo-2′,3′-dihydro-1′H-spiro[cyclopropane-1,4′-[2,7]naphthyridine]-6′-yl)amino)-3-methylphenyl)acrylamide], the IC50 in experiment [1] came to 2.7 nM; in experiment [2] (Homo sapiens, Hep3B, 72 h), 56.5 nM; in experiment [3] it was 8570 nM. In addition, in experiment [1], the “FGFR1 IC50 / FGFR4 IC50 ratio (FGFR4 selectivity)” value came out at 3172.

Turning to `C=CC(=O)Nc1ccccc1Nc1cc2c(cn1)CN(c1c(F)c(OC)nc(OC)c1F)C(=O)C21CC1` [Compound 7, N-(2-((2′-(3,5-difluoro-2,6-dimethoxypyridine-4-yl)-3′-oxo-2′,3′-dihydro-1′H-spiro[cyclopropane-1,4′-[2,7]naphthol]-6′-yl)amino)phenyl)acrylamide], in experiment [1], 5.42 nM corresponded to half-maximal inhibition (IC50) and the “FGFR1 IC50 / FGFR4 IC50 ratio (FGFR4 selectivity)” value was 782. Moreover, it took 4240 nM to reach half-maximal inhibition in experiment [3] (IC50).

`C=CC(=O)Nc1cc(N2CCOCC2)ccc1Nc1cc2c(cn1)CN(c1c(F)c(OC)nc(OC)c1F)C(=O)C21CC1` [Compound 10, N-(2-((2′-(3,5-difluoro-2,6-dimethoxypyridine-4-yl)-3′-oxo-2′,3′-dihydro-1′H-spiro[cyclopropane-1,4′-[2,7]naphthyridine]-6′-yl)-amino)-5-morpholinophenyl) acrylamide]: the 50% inhibitory concentration (IC50) in experiment [1] is 0.67 nM; in experiment [2] (Homo sapiens, Hep3B, 72 h) it was 14 nM; in experiment [3] it was 984 nM. The “FGFR1 IC50 / FGFR4 IC50 ratio (FGFR4 selectivity)” value in experiment [1] is given as 1468.
